Measurements taken from patent US11214803B2, “Modulators of YAP1 expression” (Ionis Pharmaceuticals, Inc., priority 2019, dated 2022).
Strand notation (5' to 3'): a small letter for the sugar, then the base; units joined by * are phosphorothioate-linked, units joined directly phosphodiester-linked; [ ] holds rarer units or linkages, { } end groups; capitals alone tell only the bases. k = constrained ethyl (cEt); [5mC] = 5-methylcytosine; d = 2'-deoxy (DNA)

Test system: Yap1 mRNA
Assay: Dose-dependent inhibition of human Yap1 in A-431 cells (Example 8, 10,000 cells per well, RTS4814)
Format: cell-based
Conditions: free uptake, approximately 48 hours, RTS4814; for Yap1 mRNA, % UTC: A-431 cells, 10,000 cells per well; for IC50: A-431 cells, linear regression on log/linear plot
In short: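 Yap1 mRNA, normalized to RIBOGREEN total RNA and expressed as % untreated control, was read with RTS4814 about 48 h after free-uptake oligonucleotide treatment of A-431 cells at 10,000 cells/well. IC50 derived by linear regression of log/linear data.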

Substance	Yap1 mRNA, % UTC (31.3 nM) [% UTC]	Yap1 mRNA, % UTC (125.0 nM) [% UTC]	Yap1 mRNA, % UTC (500.0 nM) [% UTC]	Yap1 mRNA, % UTC (2000.00 nM) [% UTC]	IC50 [nM]
1076294 (kT*kA*kT*dA*dT*dT*dA*dG*dT*dG*d[5mC]*d[5mC]*d[5mC]*k[5mC]*k[5mC]*kT; antisense) [compound 1076294]	76	50	21	11	100
1075457 (antisense kA*kG*kT*dA*dA*dT*dA*dT*dG*dT*dA*d[5mC]*dA*kT*kG*kG) [compound 1075457]	52	21	8	6	< 20
1076486 (kG*kA*kA*dA*d[5mC]*dG*dA*dA*dA*d[5mC]*dG*dG*dG*kA*kA*kA; antisense) [compound 1076486]	84	45	16	6	100
1074564 (DNA k[5mC]*kT*kG*dA*dA*dT*dT*d[5mC]*d[5mC]*dA*dA*dT*d[5mC]*kG*kA*kG) [compound 1074564]	40	14	7	4	< 20
1076004 (kT*kA*kA*dT*dT*dT*dA*dA*dT*dG*dG*d[5mC]*dT*kT*kG*k[5mC]; antisense) [compound 1076004]	27	7	3	2	< 20
1075112 (kA*kT*kA*dT*dA*dG*dG*dA*dA*dT*dA*dT*dG*kG*kG*kT; antisense) [compound 1075112]	87	36	13	7	100
1075876 (antisense kG*kT*kA*dT*dT*dT*dA*dT*dG*dA*dT*dG*dA*kT*kT*k[5mC]) [compound 1075876]	47	20	7	5	< 20
1074274 (antisense kG*kT*kT*d[5mC]*dT*dT*dA*dT*dG*dG*dT*dT*dT*kA*kT*kA) [compound 1074274]	42	14	7	5	< 20
1075778 (k[5mC]*kA*kT*dT*dT*dA*dT*dA*d[5mC]*d[5mC]*dA*dG*dG*k[5mC]*kA*k[5mC]; antisense) [compound 1075778]	56	29	10	5	30
1075744 (kT*kT*k[5mC]*dG*dG*dG*dT*dT*dA*dG*d[5mC]*dA*dG*kA*k[5mC]*kT; antisense) [compound 1075744]	55	22	9	7	< 20
1075819 (kG*kT*kA*dT*dA*dT*d[5mC]*d[5mC]*dG*dT*dT*d[5mC]*dT*k[5mC]*kA*kT; antisense) [compound 1075819]	48	18	7	5	< 20
1075686 (kG*kT*kA*dA*dT*dT*dA*d[5mC]*dA*dG*dT*dG*dT*k[5mC]*kT*k[5mC]; antisense) [compound 1075686]	72	44	18	14	100
1075813 (kA*k[5mC]*kT*dA*dA*dT*dA*dT*dG*d[5mC]*dA*dA*d[5mC]*kT*k[5mC]*kT; antisense) [compound 1075813]	57	31	11	5	40
1075138 (kA*kA*kT*dA*dA*dT*dA*dG*dA*dT*dA*d[5mC]*dT*kG*k[5mC]*k[5mC]; antisense) [compound 1075138]	66	27	8	5	50
1075041 (antisense kG*kA*kT*dT*dA*dT*dA*dA*dA*dG*dA*dG*dG*k[5mC]*kT*k[5mC]) [compound 1075041]	62	31	11	7	50
1076064 (kT*kA*kT*dG*dA*dA*d[5mC]*dA*dA*dT*dG*dT*dA*k[5mC]*kT*k[5mC]; antisense) [compound 1076064]	68	26	10	5	100
1076288 (k[5mC]*kT*kT*dA*dT*dT*dT*dA*dG*d[5mC]*dA*dT*dA*kG*kT*kG; antisense) [compound 1076288]	31	7	3	4	< 20
1074593 (DNA kA*kG*kG*dA*dG*d[5mC]*dA*dA*dG*dT*d[5mC]*dT*dT*kG*kT*kA) [compound 1074593]	50	20	9	8	< 20
1075712 (kG*kA*k[5mC]*dG*d[5mC]*dG*dA*dA*dA*dT*dA*d[5mC]*dT*kT*kA*k[5mC]; antisense) [compound 1075712]	69	38	13	7	100
1074536 (kA*kG*kT*dA*dA*dT*dA*dG*d[5mC]*dT*d[5mC]*dT*dT*kT*k[5mC]*kT; antisense) [compound 1074536]	64	24	9	6	40
1074245 (antisense kA*kG*kA*dA*dG*dT*dA*dT*d[5mC]*dT*d[5mC]*dT*dG*kA*k[5mC]*k[5mC]) [compound 1074245]	47	21	8	5	< 20
1075784 (kA*kT*kT*dT*dT*dA*dT*dA*dG*dG*dG*d[5mC]*d[5mC]*kA*kT*kT; antisense) [compound 1075784]	54	18	5	3	< 20
1075465 (antisense kG*kA*kT*dT*dT*dA*dT*dT*dG*dA*dA*d[5mC]*dT*kG*kA*kG) [compound 1075465]	75	35	14	9	100
1074597 (DNA kA*kG*kT*dA*dT*dT*d[5mC]*dT*dA*dT*d[5mC]*d[5mC]*dA*kG*kG*kG; antisense) [compound 1074597]	35	15	8	7	< 20
1074626 (DNA k[5mC]*kT*kG*dT*dT*dA*dT*dG*dA*dA*d[5mC]*d[5mC]*d[5mC]*kT*kT*kG) [compound 1074626]	54	18	8	5	< 20
1076299 (k[5mC]*kG*kT*dT*dA*dT*dA*dA*dA*dG*dA*d[5mC]*d[5mC]*k[5mC]*kA*kA; antisense) [compound 1076299]	68	38	13	5	100
1074794 (k[5mC]*kA*kA*dA*dT*d[5mC]*dA*dA*dT*dG*dT*dG*d[5mC]*kT*k[5mC]*k[5mC]; antisense) [compound 1074794]	56	23	10	6	< 20
1074627 (DNA k[5mC]*k[5mC]*kT*dG*dT*dT*dA*dT*dG*dA*dA*d[5mC]*d[5mC]*k[5mC]*kT*kT; antisense) [compound 1074627]	17	5	3	3	< 20
1075816 (kT*kA*kG*dT*dA*dT*dA*dA*dA*dG*d[5mC]*dA*dG*kG*kG*k[5mC]; antisense) [compound 1075816]	66	29	12	8	100
1075111 (kT*kA*kG*dG*dA*dA*dT*dA*dT*dG*dG*dG*dT*kA*kG*kT; antisense) [compound 1075111]	42	11	6	5	< 20
